Source: patent US20140322344A1, “VACCINE PREPARATION FOR CANCER TREATMENT” (priority 2011, published 2014)

Assays:
[1] = test system: CD8-positive killer T cells and CD4-positive helper T cells specific to MAGE-A4 epitopes; assay: Induction of antigen-specific T cells in immunized mice, spleen cells, intracellular cytokine staining (MAGE-A4 peptides); format: in vivo, BALB/c mice; settings: s.c. twice at one week intervals, FIG. 1
Procedure: […] For administration, they were subcutaneously injected into the backs of the mice twice at one week intervals. For one dose of the hydrophobized polysaccharide-synthetic long peptide complex, a dosage corresponding to 0.1 mg of the synthetic long peptide complex was administered. Either the CpG oligo DNA or the poly-IC RNA as the immunopotentiating agent was subcutaneously injected at a dose of 0.05 mg proximal to the administration site of the hydrophobized polysaccharide-synthetic long peptide.
One week after the final administration, spleen cells were isolated from the treated mice in the following manner. The spleen was isolated from the mouse and washed in RPMI1640 medium to remove blood. The spleen was ground using a slide glass, and then the free cells were collected in RPMI1640 medium. After centrifugation (400×g, 5 min., 4° C.), the supernatant was removed, to which 2 mL of ACK solution was added to treat the cells for 1 minute. 18 mL of RPMI1640 medium was added and centrifugation (400×g, 5 min., 4° C.) was carried out. […] After the number of the cells was counted, the cells were suspended in RPMI1640 medium containing 10% fetal bovine serum (FBS) so that the cell concentration was 1×10^7 cells/mL. […]
The cells were analyzed with a flow cytometer (FACS Canto II, BD Biosciences Company) using the associated analysis software (FACSDiva).

[2] = test system: mouse colon cancer cells CT 26 into which the MAGE-A4 gene was stably introduced; assay: Tumor rejection test, CT26/MAGE-A4; format: in vivo, BALB/c mice; settings: co-administered s.c. with CpG oligo DNA 7 days before tumor implantation; p<0.0001; FIG. 7
Procedure: A mouse colon cancer cell CT26 cell line into which the MAGE-A4 gene was stably introduced or a mouse fibrosarcoma CMS5a cell line which expresses mERK2 was subcutaneously implanted in the following manner. The CT26 cell line or CMS5a cell line, which had been cultured in a T75 flask (Nunc Co., Ltd.), was washed with PBS; then the cells were removed with PBS containing 0.5% trypsin and collected in RPMI1640 medium containing 10% FBS. After centrifugation (400×g, 5 min., 4° C.), the supernatant was removed, washed twice with RPMI1640 medium, then re-suspended in RPMI1640 medium at a concentration of 1×10^6 cells/100 μL, and subcutaneously implanted into BALB/c mice in an amount of 100 μL/individual. Subsequently, their tumor areas were measured over time. A comparison of the data in the tumor rejection test was performed according to Student's t-test using MS Excel (Microsoft).

## MAGE-A4 p264:40: synthetic long peptide, 40 aa, from MAGE-A4, SEQ ID NO: 1: GSNPARYEFLWGPRALAETSYVKVLEHVVRVNARVRIAYP (Human; MAGE-A4 p26440)
[1]; administered alone, no immunopotentiating agent
  induction of killer T cells and helper T cells specific to the peptide: are not induced
[1]; co-administered with CpG oligo DNA
  induction of antigen-specific killer T cells and helper T cells: the intended T cells are not induced
[2]
  tumor growth inhibition as compared to PBS administration group: significant inhibition
